According to ChEMBL document CHEMBL3758074, “Structure-activity relationship study of 4-(thiazol-5-yl)benzoic acid derivatives as potent protein kinase CK2 inhibitors” (Bioorg Med Chem, 2016):
pIC50: −log10 of the molar value. ≈ marks a conversion by molar mass, not a printed value.

Legend:
[1] = molecular target: Casein kinase II subunit alpha (Homo sapiens, UniProt P68400); assay: Inhibition of GST-tagged human CK2alpha (1 to 391 residues) using CK2tide as substrate incubated for 1 hr by off-chip mobility shift assay
[2] = molecular target: Casein kinase II subunit alpha' (Homo sapiens, UniProt P19784); assay: Inhibition of GST-tagged human CK2alpha' (1 to 350 residues) using CK2tide as substrate incubated for 1 hr by off-chip mobility shift assay
A549 = assay: Cytotoxicity against human A549 cells after 72 hrs by MTS assay; assay type: functional; conditions: A549, 72 h
[3] = Thermodynamic solubility of compound in 67 mM phosphate buffer at pH 7.4 after 24 hrs by HPLC analysis; assay type: physicochemical; conditions: read-out: Therm_solubility

SMILES | pIC50 [1] | pIC50 [2] | CC50 (A549) | solubility thermodynamic at 24 h [3]
COc1ccc(C(=O)Nc2ncc(-c3ccc(C(=O)O)cc3)s2)cc1 | 7.70 | 7.96 | 8.5 µM | 2.7 µg/mL (≈ 7.62 µM)
COc1ccc(C(=O)Nc2ncc(-c3ccc(C(=O)O)cc3OCc3ccccc3)s2)cc1 | – | – | 1.5 µM | –
COc1ccc(C(=O)Nc2ncc(-c3ccc(C(=O)O)nn3)s2)cc1 | – | – | > 30 µM | 1020 µg/mL (≈ 2880 µM)
COc1ccc(C(=O)Nc2ncc(-c3ccc(C(=O)O)c4ccccc34)s2)cc1 | – | – | > 30 µM | –
COc1ccc(C(=O)Nc2ncc(-c3ccc(C(=O)O)cc3Oc3ccccc3)s2)cc1 | – | – | 4.7 µM | –
COc1ccc(C(=O)Nc2ncc(-c3ccc(C(=O)O)cc3OCc3ccccn3)s2)cc1 | – | – | > 30 µM | –
COc1ccc(C(=O)Nc2ncc(-c3ccc(C(=O)O)cc3OCc3ccccc3Br)s2)cc1 | – | – | 1.5 µM | –
COc1ccc(C(=O)Nc2ncc(-c3ccc(C(=O)O)cc3OCc3ccccc3OC)s2)cc1 | – | – | 2 µM | 1.4 µg/mL (≈ 2.85 µM)
COc1ccc(C(=O)Nc2ncc(-c3ccc(C(=O)O)cc3OCc3ccc(Cl)cc3)s2)cc1 | – | – | 2.5 µM | –
COc1ccc(C(=O)Nc2ncc(-c3ccc(C(=O)O)cc3OCc3ccccc3C#N)s2)cc1 | – | – | > 30 µM | –
COc1ccc(C(=O)Nc2ncc(-c3ccc(C(=O)O)cc3OCc3cccc(Cl)c3)s2)cc1 | – | – | 18.7 µM | –
COc1ccc(C(=O)Nc2ncc(-c3ccc(C(=O)O)cc3OCc3ccccc3Cl)s2)cc1 | – | – | 1.6 µM | –
COc1ccc(C(=O)Nc2ncc(-c3ccc(C(=O)O)cn3)s2)cc1 | – | – | > 30 µM | 90 µg/mL (≈ 253 µM)
COc1ccc(C(=O)Nc2ncc(-c3ccc(C(=O)O)cc3OCc3ccccc3F)s2)cc1 | – | – | 3.3 µM | –
COc1ccc(C(=O)Nc2ncc(-c3ccc(C(=O)O)cc3OCCc3ccccc3)s2)cc1 | – | – | 3.6 µM | –
COc1ccc(C(=O)Nc2ncc(-c3ccc(C(=O)O)nc3)s2)cc1 | – | – | > 30 µM | 14 µg/mL (≈ 39.4 µM)
COc1ccc(C(=O)Nc2ncc(-c3ccc(C(=O)O)cc3COc3ccccc3)s2)cc1 | – | – | 21.9 µM | –
O=C(O)c1ccc2c(c1)nc(Nc1cccc(Cl)c1)c1ccncc12 [SILMITASERTIB] | – | – | 9.9 µM | 57 µg/mL (≈ 163 µM)
